Test results as given in ChEMBL document CHEMBL1148221, “Constituents of Senecio chionophilus with potential antitubercular activity” (2004).
In brackets after ≈: the same amount, converted by molar mass.

Tested on: Mycobacterium tuberculosis
Assay: Antitubercular activity against Mycobacterium tuberculosis H37Rv ATCC 27294 by microplate Alamar blue assay
Format: functional

SMILES	MIC
C[C@H]1[C@H](C)CC[C@]2(C(=O)O)CC[C@]3(C)C(=CC[C@@H]4[C@@]5(C)CC[C@H](O)C(C)(C)[C@@H]5CC[C@]43C)[C@H]12 [URSOLIC ACID]	32 µg/mL (≈ 70.1 µM)
CC1(C)CC[C@]2(C(=O)O)CC[C@]3(C)C(=CC[C@@H]4[C@@]5(C)CC[C@H](O)C(C)(C)[C@@H]5CC[C@]43C)[C@@H]2C1 [OLEANOLIC_ACID]	64 µg/mL (≈ 140 µM)
C=C(C)[C@@H]1CC[C@]2(C(=O)O)CC[C@]3(C)[C@H](CC[C@@H]4[C@@]5(C)CC[C@H](O)C(C)(C)[C@@H]5CC[C@]43C)[C@@H]12 [BETULINIC ACID]	32 µg/mL (≈ 70.1 µM)
CO[C@H]1/C=C/O[C@@]2(C)Oc3c(C)c(O)c4c(O)c(c(/C=N/N5CCN(C)CC5)c(O)c4c3C2=O)NC(=O)/C(C)=C\C=C\[C@H](C)[C@H](O)[C@@H](C)[C@@H](O)[C@@H](C)[C@H](OC(C)=O)[C@@H]1C [RIFAMPIN]	0.03 µg/mL (≈ 0.0365 µM)
CCC(C)C(=O)O[C@@H]1c2c(C)coc2C(=O)[C@@H]2[C@@H](O)CC[C@H](C)[C@@]12C (some centres not stated)	119 µg/mL (≈ 342 µM)
C/C=C(/C)C(=O)O[C@@H]1c2c(C)coc2C(=O)[C@@H]2[C@@H](O)CC[C@H](C)[C@@]12C	114 µg/mL (≈ 329 µM)
CC(=O)c1ccc(O)cc1 [4-HYDROXYACETOPHENONE]	121 µg/mL (≈ 889 µM)
